From patent US12344614B2, “Benzodiazepine derivatives as GABA a GAMMA1 PAM” (Hoffmann-La Roche Inc., priority 2021, dated 2025)
Where two headings read alike, the source gives them in different places.

How the values were obtained:
[1] = target: h-GABA-A α2β2γ1 receptor (Homo sapiens (Human), UniProt P47869+Q8N1C3); test: Two-electrode voltage clamp electrophysiology in Xenopus oocytes expressing GABAA receptors; assay type: cell-based; conditions: for Efficacy (GABA) %: % modulation of GABA EC20 = 100*(Fold increase−1), compound at 30-fold Ki α2β2γ1; for Fold increase h-GABA-A α2β2γ1 oocyte @ 30-fold Ki: Xenopus oocytes, GABA EC20, test compound at approx. 30-fold its Ki α2β2γ1
[2] = target: human GABAA α1β2γ1 receptor (Homo sapiens (Human), UniProt P14867+Q8N1C3); test: Radioligand binding assay, competition for [3H]RO7239181, membranes from HEK293F cells

| SMILES | Efficacy (GABA) % [1] | Fold increase h-GABA-A α2β2γ1 oocyte @ 30-fold Ki [1] | Ki ([2]; [3H]RO7239181 20-30 nM, HEK293F membranes, 1 hour at 4° C., mean of two determinations, read-out: Ki h-GABAA α1β2γ1) | Ki [2] |
| --- | --- | --- | --- | --- |
| COC1CN(C(=O)c2nc3n(n2)-c2ccc(C(F)(F)F)c(Cl)c2C(c2cc(O)ccc2F)=NC3)C1 [Example 16, [7-chloro-6-(2-fluoro-5-hydroxy-phenyl)-8-(trifluoromethyl)-4H-[1,2,4]triazolo[1,5-a][1,4]benzodiazepin-2-yl]-(3-methoxyazetidin-1-yl)methanone] | 48% | 1.48 | 11.4 nM | – |
| Cc1nnc2n1-c1ccc(C(F)(F)F)c(Cl)c1C(c1nc(O)ccc1F)=N[C@H]2C [Example 20, 6-[(4S)-7-chloro-1,4-dimethyl-8-(trifluoromethyl)-4H-[1,2,4]triazolo[4,3-a][1,4]benzodiazepin-6-yl]-5-fluoro-pyridin-2-ol] | 120% | 2.20 | – | 68.1 nM |
| Cc1nnc2n1-c1ccc(C(F)(F)F)c(Cl)c1C(c1nc(O)ccc1Cl)=N[C@H]2C [Example 22, 5-chloro-6-[(4S)-7-chloro-1,4-dimethyl-8-(trifluoromethyl)-4H-[1,2,4]triazolo[4,3-a][1,4]benzodiazepin-6-yl]pyridin-2-ol] | 84% | 1.84 | – | 42.5 nM |
| Cc1nc2n(n1)-c1ccc(C(F)(F)F)c(Cl)c1C(c1nc(O)ccc1F)=N[C@H]2C [Example 25, 6-[(4S)-7-chloro-2,4-dimethyl-8-(trifluoromethyl)-4H-[1,2,4]triazolo[1,5-a][1,4]benzodiazepin-6-yl]-5-fluoro-pyridin-2-ol] | 45% | 1.45 | – | 25.3 nM |
| Cc1cnc2n1-c1ccc(C(F)(F)F)c(Cl)c1C(c1nc(O)ccc1Cl)=N[C@H]2C [Example 26, 5-chloro-6-[(4S)-7-chloro-1,4-dimethyl-8-(trifluoromethyl)-4H-imidazo[1,2-a][1,4]benzodiazepin-6-yl]pyridin-2-ol] | 79% | 1.79 | – | 20.5 nM |
| Cc1cn2c(n1)[C@H](C)N=C(c1nc(O)ccc1F)c1c-2ccc(C(F)(F)F)c1Cl [Example 28, 6-[(4S)-7-chloro-2,4-dimethyl-8-(trifluoromethyl)-4H-imidazo[1,2-a][1,4]benzodiazepin-6-yl]-5-fluoro-pyridin-2-ol] | 68% | 1.68 | – | 19.9 nM |
